Where a name gives a salt, the structure may show the parent alone.

In patent US7897602B2, “Indolinone compounds as kinase inhibitors” (Development Center for Biotechnology, priority 2009, dated 2011) one finds inhibition and IC50 data, which are given here for 17 compounds.

What all share (assay type): biochemical
Experiment [1] has as its target T1, PDGFR-β kinase (Homo sapiens, UniProt P09619).
T1 construct: recombinant N-terminal 6×His-tagged PDGFR-β kinase domain construct expressed by baculovirus; 6xHis (N); made in house
Kind of experiment: PDGFR-β kinase assay (33P incorporation into Poly(Glu-Tyr)). The following applies: 500 nM test compound. Put shortly: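 His-tagged PDGFR-β kinase domain (55 ng) with Poly(Glu-Tyr) 4:1, 30 μM ATP plus [33P]-γ-ATP, pH 7.0 MnCl2 buffer, and 500 nM compound for 30 min at 30° C. Filter-bound radioactivity counted; inhibition computed relative to DMSO control.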

Experiment [2] concerns the target T2, Aurora B kinase (Homo sapiens, UniProt Q96GD4).
T2 construct: purchased Cell signaling
Kind of experiment: Aurora B kinase assay ([γ-33P]ATP, CHOCKtide substrate). As to conditions: for inhibition at 1 µM: 1.0 μM test compound. The procedure, abridged: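 Recombinant Aurora A (1 ng) or Aurora B (2.5 ng) incubated with test compound, CHOCKtide (1 μg) and [γ-33P]ATP/ATP at 10 μM (Aurora A) or 40 μM (Aurora B), 30 min at 33 °C. Stopped with phosphoric acid; filter-bound 33P counted; IC50 = half-maximal inhibition.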

In experiment [3] the target is T3, c-Met kinase (Homo sapiens, UniProt P08581).
T3 construct: recombinant N-terminal 6×His-tagged c-Met kinase domain construct expressed from baculovirus; 6xHis (N); made in house
T3 sequence (P08581 1078-1345 limits assumed): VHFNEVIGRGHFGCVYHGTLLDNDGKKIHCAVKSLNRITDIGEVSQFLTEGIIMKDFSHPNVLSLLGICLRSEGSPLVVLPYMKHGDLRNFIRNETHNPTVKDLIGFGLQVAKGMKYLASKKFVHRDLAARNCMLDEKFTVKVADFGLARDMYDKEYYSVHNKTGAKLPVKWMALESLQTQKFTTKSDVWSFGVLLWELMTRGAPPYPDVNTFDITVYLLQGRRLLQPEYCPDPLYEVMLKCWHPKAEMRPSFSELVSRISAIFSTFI
Kind of experiment: c-Met kinase assay (33P incorporation into Poly(Glu-Tyr)). As to conditions: 500 nM test compound. The procedure, abridged:
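Recombinant N-terminal 6×His-tagged c-Met kinase domain (baculovirus-expressed, 5 ng) acted on Poly(Glu-Tyr) 4:1 with 100 μM ATP plus [33P]-γ-ATP in MOPS pH 7.0 buffer, 30 min at 30° C. Compound was at 500 nM. Filter-retained radioactivity was compared with the DMSO control to give percent inhibition.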

The target of experiment [4] is T4, Flt3 kinase (Homo sapiens, UniProt P36888).
T4 construct: recombinant N-terminal 6×His-tagged Flt3 kinase domain construct expressed from baculovirus; 6xHis (N); made in house
T4 sequence (P36888 610-943 limits assumed): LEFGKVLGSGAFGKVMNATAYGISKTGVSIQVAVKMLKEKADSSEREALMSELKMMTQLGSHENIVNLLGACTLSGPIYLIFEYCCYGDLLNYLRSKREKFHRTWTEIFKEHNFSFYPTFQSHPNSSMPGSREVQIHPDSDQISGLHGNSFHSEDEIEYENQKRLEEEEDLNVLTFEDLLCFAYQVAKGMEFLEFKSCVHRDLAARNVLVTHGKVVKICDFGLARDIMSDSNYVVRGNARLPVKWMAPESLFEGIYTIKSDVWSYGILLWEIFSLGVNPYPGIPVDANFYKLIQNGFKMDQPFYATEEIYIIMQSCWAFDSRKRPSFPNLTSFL
Kind of experiment: Flt3 kinase assay (33P incorporation into Poly(Glu-Tyr)). As to conditions: 100 nM test compound; read-out: Inhibition at 100 nM (%) Flt-3. Put shortly:
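Baculovirus-expressed His-tagged Flt3 kinase domain (5 ng) with Poly(Glu-Tyr) 4:1 substrate, 100 μM ATP plus [33P]-γ-ATP, in MOPS pH 7.0 buffer, 30 min at 30 °C. Compound tested at a single 100 nM concentration; filter-bound radioactivity counted and percent inhibition calculated relative to DMSO control.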

T1 sequence (P09619 600-962 limits assumed): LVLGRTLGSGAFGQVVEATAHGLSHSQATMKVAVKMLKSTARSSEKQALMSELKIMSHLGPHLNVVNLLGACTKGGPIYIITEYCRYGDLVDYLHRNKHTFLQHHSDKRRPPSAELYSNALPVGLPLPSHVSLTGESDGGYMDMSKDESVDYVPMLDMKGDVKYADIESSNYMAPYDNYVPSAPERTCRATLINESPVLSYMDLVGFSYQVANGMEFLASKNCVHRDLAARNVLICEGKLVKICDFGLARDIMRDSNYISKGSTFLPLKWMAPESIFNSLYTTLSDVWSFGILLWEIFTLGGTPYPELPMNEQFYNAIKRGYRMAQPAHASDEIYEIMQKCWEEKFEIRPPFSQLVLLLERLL
T2 sequence (Q96GD4 whole entry): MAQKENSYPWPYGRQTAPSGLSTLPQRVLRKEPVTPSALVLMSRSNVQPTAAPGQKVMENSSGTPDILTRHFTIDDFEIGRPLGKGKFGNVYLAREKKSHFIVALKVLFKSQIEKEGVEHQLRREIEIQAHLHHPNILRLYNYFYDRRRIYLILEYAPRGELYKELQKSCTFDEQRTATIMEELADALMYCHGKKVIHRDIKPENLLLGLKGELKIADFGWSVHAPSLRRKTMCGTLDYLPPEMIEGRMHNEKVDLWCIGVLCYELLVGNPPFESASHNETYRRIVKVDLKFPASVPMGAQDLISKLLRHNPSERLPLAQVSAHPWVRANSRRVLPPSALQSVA

For `CCOC(=O)CCc1c(/C=C2\C(=O)Nc3cc(-c4cc(F)cc(F)c4)ccc32)[nH]c2c1C(=O)CCC2` [DCB-70100, (Z)-6-(3,5-difluorophenyl)-3-((3-(3-ethoxy-3-oxopropyl)-4-oxo-4,5,6,7-tetrahydro-1H-indol-2-yl)methylene)indolin-2-one], the values for the inhibition at 0.5 µM in experiment [1] and in experiment [3] were 20.3% and 13.1%, respectively. Moreover, in experiment [2], the inhibition at 1 µM was found to be 13.2%. In experiment [4], the inhibition at 0.1 µM worked out at 12.5%.
`O=C(O)CCc1c(/C=C2\C(=O)Nc3cc(-c4cc(F)cc(F)c4)ccc32)[nH]c2c1C(=O)CCC2` [DCB-70101, (Z)-6-(3,5-difluorophenyl)-3-((3-carboxyethyl-4-oxo-4,5,6,7-tetrahydro-1H-indol-2-yl)methylene)indolin-2-one]: the inhibition at 0.5 µM worked out at 70.5% in experiment [1] and 26.7% in experiment [3]. In addition, the inhibition at 1 µM in experiment [2] came out at 17.7%. Also, the inhibition at 0.1 µM in experiment [4] is 8.5%.
For `CCOC(=O)CCc1c(/C=C2\C(=O)Nc3ccc(NS(=O)(=O)c4ccccc4)cc32)[nH]c2c1C(=O)CCC2` [DCB-70102, (Z)-5-phenylsulfonamido-3-((3-(3-ethoxy-3-oxopropyl)-4-oxo-4,5,6,7-tetrahydro-1H-indol-2-yl)methylene)indolin-2-one], the values for the inhibition at 0.5 µM in experiment [1] and in experiment [3] were 32.8% and 33.7%, respectively. The compound also displayed an IC50 in experiment [2] of 214 nM. Also, in experiment [2], the inhibition at 1 µM amounted to 74.3%. For the same compound, in experiment [4], the inhibition at 0.1 µM came out at 75.9%.
Consider `O=C(O)CCc1c(/C=C2\C(=O)Nc3ccc(NS(=O)(=O)c4ccccc4)cc32)[nH]c2c1C(=O)CCC2` [DCB-70103, (Z)-5-phenylsulfonamido-3-((3-carboxyethyl-4-oxo-4,5,6,7-tetrahydro-1H-indol-2-yl)methylene)indolin-2-one], for which the inhibition at 0.5 µM was 51% in experiment [1] and 37.9% in experiment [3]. This compound displayed a half-maximal inhibitory concentration (IC50) in experiment [2] of 156 nM. Moreover, the inhibition at 1 µM in experiment [2] was determined as 80.1%. The inhibition at 0.1 µM in experiment [4] worked out at 44.7%.
Regarding `CC(=O)Nc1ccc2c(c1)/C(=C/c1[nH]c3c(c1CCC(=O)O)C(=O)CCC3)C(=O)N2` [DCB-70104, (Z)-5-acetamido-3-((3-carboxyethyl-4-oxo-4,5,6,7-tetrahydro-1H-indol-2-yl)methylene)indolin-2-one], the values for the inhibition at 0.5 µM in experiment [1] and in experiment [3] were 27.2% and 19.7%, respectively. The inhibition at 1 µM in experiment [2] was 12.8%. The inhibition at 0.1 µM in experiment [4] worked out at 13.9%.
For the compound `O=C(O)CCc1c(/C=C2\C(=O)Nc3ccc(S(=O)(=O)N4CCc5ccccc54)cc32)[nH]c2c1C(=O)CCC2` [DCB-70106, (Z)-5-(indolin-1-ylsulfonyl)-3-((3-carboxyethyl-4-oxo-4,5,6,7-tetrahydro-1H-indol-2-yl)methylene)indolin-2-one], in experiment [1], the inhibition at 0.5 µM amounted to 36.3%. In experiment [2], the IC50 amounted to 292 nM and the inhibition at 1 µM was found to be 70.6%. The inhibition at 0.5 µM in experiment [3] is 59.6%. Moreover, in experiment [4], the inhibition at 0.1 µM is 10.2%.
As for `CN1CCN(S(=O)(=O)c2ccc3c(c2)/C(=C/c2[nH]c4c(c2CCC(=O)O)C(=O)CCC4)C(=O)N3)CC1` [DCB-70107, (Z)-5-(4-methylpiperazin-1-ylsunfonyl)-3-((3-carboxyethyl-4-oxo-4,5,6,7-tetrahydro-1H-indol-2-yl)methylene)indolin-2-one hydrochloride], the inhibition at 0.5 µM is 8% in experiment [1] and 59.6% in experiment [3]. Further, in experiment [2], the inhibition at 1 µM was found to be 23.7%. The inhibition at 0.1 µM in experiment [4] worked out at 10.8%.
`CCOC(=O)CCc1c(/C=C2\C(=O)Nc3ccc(-c4ccc(F)cc4)cc32)[nH]c2c1C(=O)CCC2` [DCB-70108, (Z)-5-(4-fluorophenyl)-3-((3-(3-ethoxy-3-oxopropyl)-4-oxo-4,5,6,7-tetrahydro-1H-indol-2-yl)methylene)indolin-2-one]: the values for the inhibition at 0.5 µM in experiment [1] and in experiment [3] were 4% and 30.1%, respectively. Further, the inhibition at 1 µM in experiment [2] worked out at 6.8%. Moreover, the inhibition at 0.1 µM in experiment [4] was 11.8%.
Turning to `O=C(O)CCc1c(/C=C2\C(=O)Nc3ccc(-c4ccc(F)cc4)cc32)[nH]c2c1C(=O)CCC2` [DCB-70109, (Z)-5-(4-fluorophenyl)-3-((3-carboxyethyl-4-oxo-4,5,6,7-tetrahydro-1H-indol-2-yl)methylene)indolin-2-one], the figures for the inhibition at 0.5 µM in experiment [1] and in experiment [3] were 22.6% and -10.8%, respectively. Moreover, in experiment [2], the inhibition at 1 µM was 1.8%. The inhibition at 0.1 µM in experiment [4] was found to be 19.2%.
In the case of `O=C(O)CCc1c(/C=C2\C(=O)Nc3ccc(S(=O)(=O)N4CCCCC4)cc32)[nH]c2c1C(=O)CCC2` [DCB-70114, (Z)-5-(piperidin-1-ylsulfonyl)-3-((3-carboxyethyl-4-oxo-4,5,6,7-tetrahydro-1H-indol-2-yl)methylene)indolin-2-one], the inhibition at 0.5 µM in experiment [1] is 5.6%. Besides, in experiment [2], the IC50 is 494 nM and the inhibition at 1 µM is 60.7%. The inhibition at 0.5 µM in experiment [3] was found to be 3.5%. Also, in experiment [4], the inhibition at 0.1 µM turned out to be 12%.
For `C=CS(=O)(=O)c1ccc2c(c1)/C(=C/c1[nH]c3c(c1CCC(=O)O)C(=O)CCC3)C(=O)N2` [DCB-70115, (Z)-5-vinylsulfonyl-3-((3-carboxyethyl-4-oxo-4,5,6,7-tetrahydro-1H-indol-2-yl)methylene)indolin-2-one], the inhibition at 0.5 µM was 22% in experiment [1] and 22.3% in experiment [3]. In experiment [2], the inhibition at 1 µM was determined as 32.5%. Moreover, in experiment [4], the inhibition at 0.1 µM was determined as 26.8%.
On the same counts, the results for `CCS(=O)(=O)c1ccc2c(c1)/C(=C/c1[nH]c3c(c1CCC(=O)O)C(=O)CCC3)C(=O)N2` [DCB-70116, (Z)-5-ethylsulfonyl-3-((3-carboxyethyl-4-oxo-4,5,6,7-tetrahydro-1H-indol-2-yl)methylene)indolin-2-one] are 11.2%, 38.1%, 7% and 19.4%.
As for `CNS(=O)(=O)c1ccc2c(c1)/C(=C/c1[nH]c3c(c1CCC(=O)N1CCN(C)CC1)C(=O)CCC3)C(=O)N2` [DCB-70117], the inhibition at 0.5 µM in experiment [1] was determined as 8.9%; in experiment [3], 41.4%. For the same compound, the inhibition at 1 µM in experiment [2] was 5.3%. Also, in experiment [4], the inhibition at 0.1 µM stood at 48.3%.
Take `CCOC(=O)CCc1c(/C=C2\C(=O)Nc3ccc(NS(=O)(=O)CC)cc32)[nH]c2c1C(=O)CCC2` [DCB-70118, (Z)-5-ethylsulfonamido-3-((3-(3-ethoxy-3-oxopropyl)-4-oxo-4,5,6,7-tetrahydro-1H-indol-2-yl)methylene)indolin-2-one]: the inhibition at 0.5 µM in experiment [1] amounted to 16.1%; in experiment [3], 50.9%. Besides, in experiment [2], the inhibition at 1 µM worked out at 3.2%. In addition, the inhibition at 0.1 µM in experiment [4] amounted to 12.7%.
Regarding `CCS(=O)(=O)Nc1ccc2c(c1)/C(=C/c1[nH]c3c(c1CCC(=O)O)C(=O)CCC3)C(=O)N2` [DCB-70119, (Z)-5-ethylsulfonamido-3-((3-carboxyethyl-4-oxo-4,5,6,7-tetrahydro-1H-indol-2-yl)methylene)indolin-2-one], the inhibition at 0.5 µM in experiment [1] stood at 8.3%; in experiment [3] it was 31.8%. Moreover, the inhibition at 1 µM in experiment [2] worked out at 7.3%. Besides, the inhibition at 0.1 µM in experiment [4] is -3.9%.
Take `CN1CCN(C(=O)CCc2c(/C=C3\C(=O)Nc4ccc(S(=O)(=O)N5CCCC5)cc43)[nH]c3c2C(=O)CCC3)CC1` [DCB-70120, (Z)-3-((3-(3-(4-methylpiperazin-l-yl)-3-oxopropyl)-4-oxo-4,5,6,7-tetrahydro-1H-indol-2-yl)methylene)-5-(pyrrolidin-1-ylsulfonyl)indolin-2-one]: the inhibition at 0.5 µM in experiment [1] was 7.6%; in experiment [3], 10%. Further, the inhibition at 1 µM in experiment [2] stood at 21.5%. Moreover, the inhibition at 0.1 µM in experiment [4] amounted to 31.2%.
With `CN(C)S(=O)(=O)c1ccc2c(c1)/C(=C/c1[nH]c3c(c1CCC(=O)O)C(=O)CCC3)C(=O)N2` [DCB-70121, (Z)-5-(N,N-dimethylsulfamoyl)-3-((3-carboxyethyl-4-oxo-4,5,6,7-tetrahydro-1H-indol-2-yl)methylene)indolin-2-one], the inhibition at 0.5 µM in experiment [1] turned out to be 16.9%. In experiment [2], it took 1720 nM to reach half-maximal inhibition (IC50) and the inhibition at 1 µM worked out at 46.5%. The inhibition at 0.5 µM in experiment [3] is -6.7%. Also, the inhibition at 0.1 µM in experiment [4] was found to be 14.6%.
